Experimental data as given in paper PMC11898488, “A2A Adenosine Receptor Antagonists and Their Efficacy in Rat Models of Parkinson’s Disease” (Cells, 2025).
Where two headings read alike, the source gives them in different places.

How the values were obtained:
[1] = target: T1, human A2AAR (Homo sapiens, UniProt P29274); details: cited from earlier work
T1 construct: expressed in transfected cells; host or cells: CHO cells, crude membrane fractions

[2] = target: T2, human A2BAR (Homo sapiens, UniProt P29275); details: inhibition of NECA-stimulated AC activity, CHO cells expressing human A2BAR; geometric mean with 95% confidence limits; read-out: IC50 A2B; cited from earlier work
T2 construct: expressed in transfected cells; host or cells: CHO cells, crude membrane fractions
T2 sequence (P29275 1-332): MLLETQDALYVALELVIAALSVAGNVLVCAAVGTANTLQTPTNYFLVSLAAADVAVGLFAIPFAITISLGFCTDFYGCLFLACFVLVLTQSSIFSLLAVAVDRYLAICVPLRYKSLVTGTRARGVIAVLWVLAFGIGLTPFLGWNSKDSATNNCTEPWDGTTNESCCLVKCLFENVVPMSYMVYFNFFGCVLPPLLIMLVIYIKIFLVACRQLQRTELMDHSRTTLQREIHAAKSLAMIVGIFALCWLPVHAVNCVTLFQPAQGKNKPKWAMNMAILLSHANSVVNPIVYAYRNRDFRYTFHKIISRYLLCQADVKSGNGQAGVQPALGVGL

[3] = target: T3, human A3AR (Homo sapiens, UniProt P0DMS8); details: [3H]-NECA displacement, human A3AR in CHO cells; geometric mean with 95% confidence limits; read-out: Ki A3; cited from earlier work
T3 construct: expressed in transfected cells; host or cells: CHO cells, crude membrane fractions
T3 sequence (P0DMS8 1-318): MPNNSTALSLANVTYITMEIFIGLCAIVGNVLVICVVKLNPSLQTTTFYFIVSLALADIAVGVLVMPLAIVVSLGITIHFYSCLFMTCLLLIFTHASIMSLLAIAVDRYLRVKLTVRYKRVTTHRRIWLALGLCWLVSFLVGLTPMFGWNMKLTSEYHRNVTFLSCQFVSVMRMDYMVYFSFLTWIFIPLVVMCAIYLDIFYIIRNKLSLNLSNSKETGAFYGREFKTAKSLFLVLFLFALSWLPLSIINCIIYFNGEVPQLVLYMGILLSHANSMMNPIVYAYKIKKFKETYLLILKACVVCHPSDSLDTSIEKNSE

[4] = target: T1, human A2AAR; experiment: Radioligand binding, displacement of [3H]NECA at human A2AAR in CHO cells; details: for Selectivity A1/A2A / Selectivity A3/A2A: ratio of Ki values at human ARs; for Ki: [3H]-NECA displacement, geometric mean with 95% confidence limits, read-out: Ki A2A
Description: (§1) The radioligand binding experiments were carried out exactly as described previously. For A1AR binding, 1 nM [^3H]CCPA was used as a radioligand, whereas 30 and 10 nM [^3H]NECA were used for A2A and A3 ARs, respectively. Nonspecific binding was determined in the presence of 1 mM theophylline (A1AR) or […] R-PIA (A2A and A3 ARs). Ki values were calculated from competition curves by nonlinear curve fitting with the program SCTFIT [31].
(§2) CHO cells stably transfected with human ARs were grown adherently and maintained in Dulbecco’s Modified Eagles Medium with nutrient mixture F12 (DMEM/F12) without nucleosides, containing 10% fetal calf serum, penicillin (100 U/mL), streptomycin (100 μg/mL), L-glutamine (2 mM), and Geneticin (G-418, 0.2 mg/mL) at 37 °C in 5% CO2/95% air, as described earlier. For radioligand binding studies and measurement of adenylyl cyclase activity, crude membrane fractions were prepared from fresh or frozen cells with two different protocols described earlier. The determination of adenylyl cyclase activity followed the procedure described earlier. IC50 values for the inhibition of adenylyl cyclase stimulated (in the case of A2BAR) with 5 μM NECA were calculated with the Hill equation and converted to Ki values with the Cheng and Prusoff equation [32].
(§3) [^3H]CCPA (2-chloro-N^6-cyclopentylAdo) and [^3H]NECA (5′-N-ethylcarboxamidoAdo) were used as specific radioligands at A1ARand A2A / A3 ARs, respectively. Furthermore, the ability of the same compounds to inhibit NECA-stimulated adenylyl cyclase activity was evaluated at the A2BAR subtype. The results of the binding studies (A1, A2A, and A3 ARs) and functional data (A2BAR) are reported in Table 1 as Ki or IC50 values in nM, together with the data on the reference compounds 1–3.

[5] = target: T4, human A1AR (Homo sapiens, UniProt P30542); details: [3H]-CCPA displacement, human A1AR in CHO cells; geometric mean with 95% confidence limits; read-out: Ki A1; cited from earlier work
T4 construct: expressed in transfected cells; host or cells: CHO cells, crude membrane fractions
T4 sequence (P30542 1-326): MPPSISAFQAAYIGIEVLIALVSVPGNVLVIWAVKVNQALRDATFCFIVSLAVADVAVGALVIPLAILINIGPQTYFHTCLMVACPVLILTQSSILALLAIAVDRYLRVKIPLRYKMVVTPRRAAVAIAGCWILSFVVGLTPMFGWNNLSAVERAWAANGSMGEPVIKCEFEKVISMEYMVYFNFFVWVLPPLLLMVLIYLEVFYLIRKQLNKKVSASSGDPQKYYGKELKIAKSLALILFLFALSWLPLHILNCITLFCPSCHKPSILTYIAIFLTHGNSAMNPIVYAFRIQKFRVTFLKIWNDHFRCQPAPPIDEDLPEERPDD

[6] = target: T2, human A2BAR; experiment: Inhibition of NECA-stimulated adenylyl cyclase activity at human A2BAR; format: biochemical; details: inhibition of NECA-stimulated AC activity, CHO cells expressing human A2BAR, read-out: IC50 A2B
Description: as §2, §3

[7] = target: T3, human A3AR; experiment: Radioligand binding, displacement of [3H]NECA at human A3AR in CHO cells; details: [3H]-NECA displacement, read-out: Ki A3
Description: as §1, §2, §3

[8] = target: T4, human A1AR; experiment: Radioligand binding, displacement of [3H]CCPA at human A1AR in CHO cells; details: for Ki: [3H]-CCPA displacement, geometric mean with 95% confidence limits, read-out: Ki A1
Description: as §1, §2, §3

[9] = [3H]-NECA displacement, human A2AAR in CHO cells, geometric mean with 95% confidence limits, read-out: Ki A2A
[10] = geometric mean with 95% confidence limits

T1 sequence (P29274 whole entry): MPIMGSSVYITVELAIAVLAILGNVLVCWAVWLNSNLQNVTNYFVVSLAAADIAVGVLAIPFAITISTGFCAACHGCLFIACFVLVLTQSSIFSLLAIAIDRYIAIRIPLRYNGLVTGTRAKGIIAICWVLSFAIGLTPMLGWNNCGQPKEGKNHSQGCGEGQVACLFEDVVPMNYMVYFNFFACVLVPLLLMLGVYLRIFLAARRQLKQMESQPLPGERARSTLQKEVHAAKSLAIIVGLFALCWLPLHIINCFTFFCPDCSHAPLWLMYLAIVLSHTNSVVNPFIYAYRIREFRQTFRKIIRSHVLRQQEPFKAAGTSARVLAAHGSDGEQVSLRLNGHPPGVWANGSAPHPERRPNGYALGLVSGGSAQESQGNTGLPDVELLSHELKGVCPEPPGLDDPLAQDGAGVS

SMILES	Selectivity A1/A2A [4]	Selectivity A3/A2A [4]	IC50 [6, 10]	Ki ([4]; human A2AAR in CHO cells)	Ki [7, 10]	Ki [8]	IC50 ([6]; bound given in µM)	Affinity at A2A AR, in words ([4]; human A2AAR in CHO cells)	Ki ([7]; bound given in µM)	Affinity at A1 AR, in words [8]	Ki ([1]; read-out: Ki at the human A2AAR)	IC50 [2]	Ki [3]	Ki [5]	Ki [1, 9]
CCOc1nc2c(N)ncnc2n1CC [ANR 94, 9-ethyl-8-ethoxyadenine, reference compound]											46 nM				
CCn1c(-c2ccco2)nc2c(N)nc(OCCc3ccccc3)nc21 [Compound 2, 9-ethyl-8-furyl-2-phenetoxyadenine]	2.6	7.3										521 nM	16 nM	5.8 nM	2.2 nM
CCn1cnc2c(N)nc(OCCc3ccccc3)nc21 [Compound 3, 9-ethyl-2-phenethoxyadenine]	1.4	59										45800 nM	7150 nM	170 nM	120 nM
CCn1c(-c2cccs2)nc2c(N)nc(OCCc3ccccc3)nc21 [Compound 6]	2.7	3.5	4.99 µM	7.7 nM	0.027 µM	21 nM									

Second part, led by results:

Selectivity A1/A2A [4]	Selectivity A3/A2A [4]	IC50 [6, 10]	Ki ([4]; human A2AAR in CHO cells)	Ki [7, 10]	Ki [8]	IC50 ([6]; bound given in µM)	Affinity at A2A AR, in words ([4]; human A2AAR in CHO cells)	Ki ([7]; bound given in µM)	Affinity at A1 AR, in words [8]	SMILES	Ki ([1]; read-out: Ki at the human A2AAR)	IC50 [2]	Ki [3]	Ki [5]	Ki [1, 9]
6.3	18	38.9 µM	81 nM	1.45 µM	509 nM					CCn1c(C2CCCO2)nc2c(N)nc(OCCc3ccccc3)nc21 (centres unmarked) [Compound 7]					
3.0	19	63.7 µM	655 nM	12.3 µM	1990 nM					CCn1cnc2c(N)nc(OCCc3ccc(OC)cc3)nc21 [Compound 9, 9-ethyl-2-(4-methoxyphenyl)ethoxyadenine]					
7.1	146	9.19 µM	28 nM	4.06 µM	197 nM					CCn1c(Br)nc2c(N)nc(OCCc3ccc(OC)cc3)nc21 [Compound 10, 8-bromo-9-ethyl-2-(4-methoxyphenethoxy)-9H-purin-6-amine]					
5.5	10		7.1 nM	0.073 µM	39 nM	> 100 µM				CCn1c(-c2ccco2)nc2c(N)nc(OCCc3ccc(OC)cc3)nc21 [Compound 11]					
3.2			7080 nM		22900 nM	> 100 µM	µM affinity	> 100 µM	µM affinity	CCn1cnc2c(N)nc(Oc3ccc(CCO)cc3)nc21 [Compound 13, 2-(4-((6-amino-9-ethyl-9H-purin-2-yl)oxy)phenyl)ethan-1-ol]					
